Reference: US20220257581A1, “Treatment of Cancer” (Sumitomo Dainippon Pharma Oncology, Inc., priority 2019, published 2022)

Assays:
[1] = tested on: patients with newly diagnosed, previously untreated AML; test: Minimal residual disease (MRD) analysis of bone marrow by flow cytometry in the Phase 1 study; assay type: in vivo, human
Description: Minimal Residual Disease (MRD) Analysis. MRD was assessed in bone marrow samples at the time of response by a uniform central assay (Hematologics, Inc.) in an exploratory cohort, as has been previously described. Samples were first incubated with antibodies for 20 minutes at room temperature. Red blood cells were then lysed at 37° C. using buffered NH4Cl for 5 minutes, followed by centrifugation at 300 g. Cells were subsequently washed with PBS supplemented with 2% FCS and resuspended in 1% paraformaldehyde. Samples were analyzed on a FACSCalibur™ flow cytometer (Becton Dickinson Biosciences). 200,000 events were analyzed for each sample. Data analysis was performed with WinList™ software (Verity Software House). Two independent reviewers viewed each sample to arrive at a consensus on the data.

[2] = tested on: patients with newly diagnosed, previously untreated AML
Description: Treatment Plan: Induction. Alvocidib was dose-escalated starting at dose level 1: 20 mg/m^2 30-minute IV bolus followed by 30 mg/m^2 IV infusion over 4 hours on Days 1-3 (FIG. 1). Daunorubicin 60 mg/m^2 IV bolus over 15 minutes was initiated on days 5-7, and cytarabine 100 mg/m^2/day IV continuous 24-hour infusion was administered on Days 5-11. A bone marrow aspirate and biopsy was performed on day 14 (+/−3 days) and patients with residual leukemia (>5% bone marrow blasts and >10% cellularity) were recommended to receive a second induction cycle with alvocidib on days 1-3 (same dose level as induction) followed by daunorubicin 45 mg/m^2/day IV over 15 minutes on days 5 and 6 and cytarabine 100 mg/m^2/day IV continuous infusion over days 5-9 (“5+2”).
Statistical Analysis. Alvocidib dose was escalated using a 3+3 design (FIG. 1). Successive cohorts of patients (3-6 per cohort) were treated with escalated doses until the maximal tolerated dose (MTD) was established. Intra-patient dose escalation was not permitted. Descriptive analysis was performed for the safety and efficacy endpoints. MTD for alvocidib was estimated by the highest alvocidib dose for which the incidence of DLT during Cycle 1 was less than 33% in combination with 7+3. Kaplan-Meier time-to-event analyses were performed on overall survival (OS), relapse-free survival and duration of remission. […]

[3] = tested on: patients with newly diagnosed, previously untreated AML; test: Kaplan-Meier time-to-event analyses and clinical outcomes of the Phase 1 study; assay type: in vivo, human
Source text: Statistical Analysis. […] Intra-patient dose escalation was not permitted. […] Database lock was on Apr. 30, 2020.

[4] = tested on: patients with newly diagnosed, previously untreated AML; test: Phase 1 dose-escalation study of alvocidib followed by 7+3: response assessments (ELN Guidelines); assay type: in vivo, human; details: for Overall CR, n (%): Response Evaluable Population
Description: Methods: Study Population. This was a Phase 1, open-label, multicenter, dose-escalation study of alvocidib followed by cytarabine/daunorubicin (7+3) in patients with AML (NCT03298984). Patients aged 18-65 years with newly diagnosed, previously untreated AML and pathological confirmation of bone marrow (BM) blasts 20% were eligible. Key inclusion criteria included: Eastern Cooperative Oncology Group (ECOG) performance status (PS)≤2, serum creatinine level <1.8 mg/dL, alanine aminotransferase (ALT) and aspartate aminotransferase (AST)<5 times upper limit of normal (ULN), total bilirubin <2.0 mg/dL, and left ventricular ejection fraction (EF) >45%. Patients were excluded if they had previous treatment for AML (with the exception of hydroxyurea), and were diagnosed with acute promyelocytic leukemia (APL-M3) or core-binding factor AML ((CBF-AML: t(8;21); inv(16); t(16;16)). All patients provided written informed consent. This study was conducted as per the Declaration of Helsinki after approval by ethics committee of each participating center.
Treatment Plan: Induction.
Consolidation. Patients who achieved a complete remission (CR) received 2 to 4 cycles of consolidation therapy with high dose cytarabine (HiDAC) 3 gm/m^2 IV every 12 hours on days 1, 3 and 5 upon full hematological recovery (absolute neutrophil count ≥[…] and platelets >[…]). HiDAC was permitted to be dose reduced to 1.5 gm/m^2 IV every 12 hours on days 1, 3 and 5 in those >60 years. Allogeneic stem cell transplantation was permitted after induction per standard of care but was recommended after at least 1 cycle of HiDAC consolidation in those who achieved CR.
Response Assessments. Response assessment was performed by a bone marrow aspirate and biopsy at the time of full hematologic recovery or by day 50 and day 60 of 1 versus 2 induction cycles, respectively. Response to therapy was assessed by standardized ELN Guidelines. In those who achieved CR and received consolidation therapy, a bone marrow aspirate and biopsy was performed after cycle 2 of HiDAC, after completion of consolidation therapy, and at any suspicion of relapse.

MDS blasts = test: MCL-1 dependency assay of MDS blasts after azacitidine pre-treatment; assay type: cell-based, human; details: MCL-1 dependency cut-off of 40%
Description: CD13, CD33, CD34, CD45, CD3 and CD20 were used as markers to identify MDS blasts, and to perform MCL-1 dependency analyses. MDS blasts were positive for CD13, CD33 and CD34, dim for CD45 and negative for CD3 and CD20.
On day 1 of the MCL-1 dependency assay, 5×10^4-1×10^5 HS-5 feeder cells were plated into a 6-well plate, and allowed to attached overnight. HS-5 feeder cells improve viability of frozen MDS bone marrow mononuclear cells (BMMCs) after thawing. On day 2 of the assay, MDS BMMCs were thawed, and divided into three treatment groups corresponding to treatment with DMSO, treatment with 1 μM azacitidine or treatment with 2.5 μM azacitidine. On day 4, after a 48-hour treatment period, MCL-1 dependency of MDS blasts, lymphocytes and monocytes were separately assessed.

[5] = Response Evaluable Population (N = 31), alvocidib followed by 7+3

Compound: CN1CC[C@H](c2c(O)cc(O)c3c(=O)cc(-c4ccccc4Cl)oc23)[C@H](O)C1 [alvocidib, 2-(2-chlorophenyl)-5,7-dihydroxy-8-[(3S,4R)-3-hydroxy-1-methylpiperidin-4-yl]chromen-4-one]
- MRD-negative among patients who achieved CR ([1]; 22 CR patients, standardized flow cytometry and/or institutional standard assessment): 50%
- MRD-negative among patients who achieved CR ([1]; ELN adverse-risk disease (4/9)): 44%
- MRD-negative CR, overall ([1]; MRD exploratory cohort, 8 of 12 patients): 67%
- MRD-negative among CR patients ([1]; MRD exploratory cohort, centralized flow cytometry (8/9)): 89%
- MRD-negative CR ([1]; MRD exploratory cohort, ELN adverse-risk patients (3 out of 4)): 75%
- CR with evidence of MRD ([1]; MRD exploratory cohort, one patient with adverse-risk disease): 11%
- MTD (maximum tolerated dose) of alvocidib ([2]; IV bolus/IV infusion on Days 1-3, in combination with 7+3): (30/60 mg/m^2)
- safety and feasibility ([2]; in vivo): safe, feasible
- median duration of CR ([3]; 7 relapsed CR patients, range: 1.4-13.6 months): 8.6 months
- Median EFS ([3]; 32 patients, 95% CI: 2.0, NA): 10.0 months
- Landmark 1-year OS ([3]; 32 patients, 95% CI: 41.9, 77.4%): 62.4%
- median OS ([3]; 32 patients, median follow-up 9.2 months): not reached
- Landmark 2-year EFS ([3]; 95% CI: 15.4, 53.8%): 34.1%
- Landmark 1-year EFS ([3]; 95% CI: 21.9, 59.1%): 40.9%
- Landmark 1-year RFS ([3]; 95% CI: 31.7, 79.1%): 59.5%
- relapsed to date ([3]; of the 22 CR patients): 32%
- remain in CR ([3]; patients who achieved CR without MRD): 82%
- relapsed ([3]; patients who achieved CR without evidence of MRD): 18%
- median RFS ([3]; time from CR/CRi up to relapse or death): not reached
- patients achieving CR after re-induction therapy ([4]; 3 patients re-induced with alvocidib and 5+2): None
- CR rate ([4]; AML with mutated chromatin, RNA-splicing genes, or both (9/10)): 90%
- patients achieving CR ([4]; MRD exploratory cohort of 12 patients at recommended phase 2 dose): 75%
- CR, n (%) [4, 5]: 22 (71.0%) n (%)
- CRi (%) [4, 5]: 0%
- Overall CR/CRi, n (%) [4, 5]: 22 (71.0%) n (%)
- Overall Response Rate (CR + CRi + PR) [4, 5]: 24 (77.4%) n (%)
- PR, n (%) [4, 5]: 2 (6.5%) n (%)
- Overall CR, n (%) ([4]; ELN-risk Adverse (n = 15)): 9 (60.0%) n (%)
- Overall CR, n (%) ([4]; ELN-risk Favorable (n = 9)): 8 (88.9%) n (%)
- Overall CR, n (%) ([4]; ELN-risk Intermediate (n = 7)): 5 (71.4%) n (%)
- Overall CR, n (%) ([4]; SWOG cytogenetics risk Favorable (n = 0)): 0 (0.0%) n (%)
- Overall CR, n (%) ([4]; SWOG cytogenetics risk Intermediate (n = 19)): 15 (78.9%) n (%)
- Overall CR, n (%) ([4]; SWOG cytogenetics risk Unfavorable (n = 12)): 7 (58.3%) n (%)
- Overall CR, n (%) ([4]; SWOG cytogenetics risk Unknown (n = 0)): 0 (0.0%) n (%)
- Overall CR, n (%) ([4]; subgroup AML with MRC (n = 11)): 6 (54.5%) n (%)
- Overall CR, n (%) ([4]; subgroup Age <60 years (n = 21)): 16 (76.2%) n (%)
- Overall CR, n (%) ([4]; subgroup Age ≥60 years (n = 10)): 6 (60.0%) n (%)
- Overall CR, n (%) ([4]; subgroup At MTD (n = 23)): 15 (65.2%) n (%)
- Overall CR, n (%) ([4]; subgroup Secondary AML (n = 5)): 3 (60.0%) n (%)
- patients with no evidence of residual leukemia on day 14 assessment ([4]; all enrolled patients): 91%
- CR rate ([4]; all enrolled patients (n=32)): 69%
- overall response rate (ORR: CR+partial remission (PR)) ([4]; all enrolled patients (n=32)): 75%
- Overall CR rate ([4]; all enrolled, ELN adverse-risk (9 of 16)): 56%
- Overall CR rate ([4]; all enrolled, ELN favorable-risk (8 of 9)): 89%
- Overall CR rate ([4]; all enrolled, ELN intermediate-risk (5 of 7)): 71%
- CR rate ([4]; dose level 1 (3 of 3), all ELN favorable-risk): 100%
- CR rate ([4]; genomic signature specific for secondary AML (ASXL1, BCOR, EZH2, SF3B1, SRSF2, STAG2, U2AF1, or ZRSR2) (11/12)): 92%
- Overall CR rate ([4]; patients with ASXL1 mutations (5/6)): 83%
- CR rate ([4]; patients with MCL-1 scores greater than 30% (10/12)): 83%
- CR rate ([4]; patients with MCL-1 scores less than 30% (10/15)): 67%
- CR rate ([4]; patients with NPM1 mutations (8/10)): 80%
- Overall CR rate ([4]; patients with RUNX1 mutations (4/5)): 80%
- patients achieving CR ([4]; patients with a TP53 mutation (1/3)): 33%
- patients achieving CR ([4]; recommended phase 2 dose level (15/23)): 65%
- CR rate ([4]; response-evaluable patients): 71%
- ORR ([4]; response-evaluable patients): 77%

Compound: Nc1ncn([C@@H]2O[C@H](CO)[C@@H](O)[C@H]2O)c(=O)n1 [azacitidine]
- patient samples with an increase in MCL-1 dependency (MDS blasts; 1 μM or 2.5 μM azacitidine, 48-hour treatment): 10/12
- effect on MCL-1 dependency status of blasts (MDS blasts; patient sample MDS1060): rendered MCL-1-independent blasts MCL-1 dependent
